# Measured values: US20260347325A1, “DIPHENYLPYRAZOLE COMPOUNDS AND THEIR USE” (INSTITUT NATIONAL DE LA SANTÉ ET DE LA RECHERCHE MÉDICALE, priority 2022, published 2026)
# Experiments:
# [1] = test system: sAPPα; experiment: sAPPα secretion (sAPPα/sAPPβ multiplex kit); format: cell-based, human; conditions: for EC (1.5-fold): Homo sapiens, 24 h, concentration to increase sAPPα by 1.5-fold vs untreated, read-out: sAPPα C1.5; for secretion of sAPPα: in words
# Protocol: (§1) The human neuroblastoma cell line SY5Y-APP^695WT was maintained in Dulbecco's modified Eagle medium (DMEM, high glucose, pyruvate—GIBCO, Life Technologies) supplemented with 10% fetal bovine serum, 2 mM L-glutamine, 1 mM non-essential amino acids and penicillin/streptomycin (GIBCO, Life Technologies) at 37°C in a 5% CO2 humidified incubator [36]. For compound treatment, a 10 mM stock solution was diluted in freshly supplemented DMEM medium to obtain the precise final concentration of the drug. Cells were plated at a density of 5.10^5 cells per well into 12-well plates and cultured with 1 mL supplemented DMEM cell medium for 24 h before compound exposure. The following day, the cell medium was replaced with fresh medium containing the compounds diluted at the indicated concentrations. Cells were treated for 24 h. At the end of treatments, the cell medium was collected and kept at −80°C until use, cells were rinsed once with PBS and extracted in 100 μL of Laemmli buffer (10 mM Tris, 20% glycerol, and 2% sodium dodecyl sulfate) using a cell-scraper. The cell lysate was further sonicated (30 pulses of 0.5 s, 60 Hz) for 5 min. Total protein concentration was determined using the Pierce BCA Protein Assay Kit (Thermo Scientific) according to the manufacturer's instructions. Samples were stored at −80°C until analysis.
# Conditioned media of SYSY-APP^695WT collected at the end of treatments were centrifuged at 1000×g for 5 min to eliminate cell debris.
# (§2) Aβ1-40/Aβ1_42 peptides, Aβx-38/Aβx-40/Aβx-42 and sAPPα/sAPPβ concentrations in […] were determined, respectively, using amyloid-beta 40 and 42 Human ELISA kits (Invitrogen), V-PLEX Plus Aβ Peptide Panel 1 (4G8) Kit (Meso Scale Diagnostics, MSD R©) and sAPPα/sAPPβ multiplex kit (Meso Scale Diagnostics, MSD R©) according to the manufacturer's instructions.
# (§3) Compounds of the invention (compounds 16-17, 24-35, 57-58 and 61-72) were evaluated for their ability to modulate APP processing on SYSY human neuroblastoma cell line stably expressing the neuronal isoform of human wild-type APP695 (SY5Y-APP^wt). APP carboxy-terminal fragments (αCTFs and AICD) levels were assessed by western blotting (WB). The effect of reference and test compounds on αCTFs and AICD is expressed as the intensity of corresponding WB bands. The concentration of compounds able to increase 20-times αCTFs and AICD (C20) when compared to the control condition was calculated. Selected compounds were also evaluated for their ability to modulate the secretion of soluble APP fragments (sAPPα and sAPPβ). Aβ1-x levels (Aβ1_40 and Aβ1-42) after treatment with reference and tested compounds were measured in the cell media by ELISA (Table 2). […] Selected hit compounds were then further evaluated for their ability to decrease the level of N-truncated Aβ peptides (Aβx-38, Aβx-40, and Aβx-42). […] 2015, 6, 559-569; B1: compound 8 of M. Gay et al., Bioorg. Med. Chem. 2018, 26, 2151-2164.
# (§4) The activity of compounds of the invention on sAPPα 6 and sAPPβ was further explored. The expression of sAPPβ and sAPPα, which are by-products of β- and α-secretase respectively, were quantified in media of treated cells.
# [2] = test system: αCTF; conditions: 20-fold increase vs untreated; prior art reference compounds, footnotes e, f cite literature; cited from earlier work
# [3] = test system: AICD; conditions: 20-fold increase vs untreated; prior art reference compounds, footnotes e, f cite literature; cited from earlier work
# [4] = test system: SY5Y-APP695WT cells; conditions: 72 h; prior art reference compounds, footnotes e, f cite literature; read-out: Cytotoxicity CC50; cited from earlier work
# [5] = test system: Aβ; conditions: in words; cited from earlier work
# [6] = test system: APP-CTFs and AICD; conditions: in words; cited from earlier work
# [7] = test system: γ-secretase cleavage of Notch; conditions: in words; cited from earlier work
# [8] = test system: Aβ1-x peptides; experiment: Aβ1-x (Aβ1-40 and Aβ1-42) secretion; format: cell-based, human; conditions: in words
# Protocol: as §1, with “At the end of treatments, the cell medium was collected and kept at −80°C until use, cells were rinsed once with PBS and extracted in 100 μL of Laemmli buffer (10 mM Tris, 20% glycerol, and 2% sodium dodecyl sulfate) using a cell-scraper. The cell lysate was further sonicated (30 pulses of 0.5 s, 60 Hz) for 5 min.” left out, “Samples were stored at −80°C until analysis.” left out
# as §2, with “instructions. […]” for “instructions.”
# [9] = test system: β-secretase; experiment: β-secretase cleavage of APP; format: cell-based, human; conditions: in words
# Protocol: as §3, §4
# [10] = test system: Aβ1-40; experiment: Aβ1-40 secretion in SY5Y-APPwt cells (ELISA of conditioned media); format: cell-based; conditions: Homo sapiens, 24 h, inhibiting 50% of Aβ1-40 secretion, mean ± SD of at least two experiments in triplicate
# Protocol: (§5) 2. Cell Culture and Treatments
# as §1
# (§6) 5. Quantification of Secreted Aβ and sAPP […]
# as §2
# (§7) Compounds of the invention (compounds 16-17, 24-35, 57-58 and 61-72) were evaluated for their ability to modulate APP processing on SYSY human neuroblastoma cell line stably expressing the neuronal isoform of human wild-type APP695 (SY5Y-APP^wt). APP carboxy-terminal fragments (αCTFs and AICD) levels were assessed by western blotting (WB). The effect of reference and test compounds on αCTFs and AICD is expressed as the intensity of corresponding WB bands. The concentration of compounds able to increase 20-times αCTFs and AICD (C20) when compared to the control condition was calculated. Selected compounds were also evaluated for their ability to modulate the secretion of soluble APP fragments (sAPPα and sAPPβ). Aβ1-x levels (Aβ1_40 and Aβ1-42) after treatment with reference and tested compounds were measured in the cell media by ELISA (Table 2). […] Selected hit compounds were then further evaluated for their ability to decrease the level of N-truncated Aβ peptides (Aβx-38, Aβx-40, and Aβx-42). […]
# [11] = test system: Aβ1-42; experiment: Aβ1-42 secretion in SY5Y-APPwt cells (ELISA of conditioned media); format: cell-based; conditions: Homo sapiens, 24 h, inhibiting 50% of Aβ1-42 secretion, mean ± SD of at least two experiments in triplicate
# Protocol: as §5, §1, §6, §2, §7
# [12] = test system: αCTF; experiment: αCTF level in SY5Y-APPwt cells by western blotting; format: cell-based; conditions: Homo sapiens, 24 h; concentration to increase αCTF by 20-fold vs untreated; mean of at least three experiments, less than 10% deviation; read-out: αCTF (C20)
# Protocol: as §1
# (§8) Cell protein lysates were prepared for western-blot analysis by diluting the sample with 1 volume of NuPAGE® lithium dodecyl sulfate (LDS) 2× sample buffer supplemented with 20% NuPAGE® sample reducing agents (Invitrogen). Samples were heated for 10 min at 100°C Ten μg of total proteins per well were loaded onto precast 4-12% Criterion XT Bis-Tris polyacrylamide gels (Bio-Rad) and electrophoresis was achieved after applying a tension of 150 V during 90 min using a Criterion electrophoresis Cell with the NuPAGE® MOPS SDS running buffer (1×). Proteins were transferred to a nitrocellulose membrane of […] pore size (G&E Healthcare) using the Criterion blotting system and applying a tension of 100 V for 45 min. To resolve proteins of low molecular weights such as carboxy-terminal fragments of APP, 12% Criterion XT Bis-Tris polyacrylamide gels (Bio-Rad) were used and electrophoresis was performed during 70 min at 150 V in a NuPAGE® MES SDS running buffer (1×). […] Protein transfer and quality were determined by a reversible Ponceau Red coloration (0.2% xylidine Ponceau Red and 3% trichloroacetic acid). […] Quantifications of protein expression levels were performed with Image Quant TL (G&E Healthcare). […]
# (§9) Compounds of the invention (compounds 16-17, 24-35, 57-58 and 61-72) were evaluated for their ability to modulate APP processing on SYSY human neuroblastoma cell line stably expressing the neuronal isoform of human wild-type APP695 (SY5Y-APP^wt). […]
# [13] = test system: AICD; experiment: AICD level in SY5Y-APPwt cells by western blotting; format: cell-based; conditions: Homo sapiens, 24 h; concentration to increase AICD by 20-fold vs untreated; mean of at least three experiments, less than 10% deviation; read-out: AICD (C20)
# Protocol: as §1, §8, §9
# [14] = Cytotoxicity MTS assay; format: cell-based; conditions: human, sy5y-app695wt cells; 50% of cell death after 72 h treatment
# Protocol: Cytotoxicity was measured using 3-(4,5-dimethylthiazol-2-yl)-5-(3-carboxymethoxyphenyl)-2-(4-sulfophenyl)-2H-tetrazolium (MTS) tests. SY5Y-APP^695WT cells were plated in a 96-wells plate at 3.10^4 cells per well and allowed to attach for 24 h. Cells were then incubated for 72 h with 100 μL of DMEM medium with 10% SVF containing (or not) the defined concentration of drugs. Cytotoxicity was determined by using the colorimetric MTS assay (Cell Titer 96® Aqueous One Solution Cell Proliferation Assay-MTS Promega) according to the manufacturer's instructions. Absorbance was read at 490 nm.
# [15] = test system: sAPPβ; experiment: sAPPβ secretion (sAPPα/sAPPβ multiplex kit); format: cell-based; conditions: Homo sapiens; inhibiting 50% of sAPPβ secretion in SY5Y cells; mean ± SD of at least three experiments in triplicate
# Protocol: The human neuroblastoma cell line SY5Y-APP^695WT was maintained in Dulbecco's modified Eagle medium (DMEM, high glucose, pyruvate—GIBCO, Life Technologies) supplemented with 10% fetal bovine serum, 2 mM L-glutamine, 1 mM non-essential amino acids and penicillin/streptomycin (GIBCO, Life Technologies) at 37°C in a 5% CO2 humidified incubator [36]. For compound treatment, a 10 mM stock solution was diluted in freshly supplemented DMEM medium to obtain the precise final concentration of the drug. Cells were plated at a density of 5.10^5 cells per well into 12-well plates and cultured with 1 mL supplemented DMEM cell medium for 24 h before compound exposure. […] Total protein concentration was determined using the Pierce BCA Protein Assay Kit (Thermo Scientific) according to the manufacturer's instructions. […]
# as §2, with “instructions. […]” for “instructions.”
# as §4
Compound,EC (1.5-fold) [1],IC50 [10],IC50 [11],EC (20-fold increase) [12],EC (20-fold increase) [13],CC50 at 72 h [14],also measured
"Cc1cn(-c2cccc(CN(C)CCCN(C)C)c2)nc1-c1ccc(CN(C)CCCN(C)C)cc1 [Compound 69, [3-(dimethylamino)propyl][(4-{1-[3-({[3-(dimethylamino)propyl](methyl)amino}methyl)phenyl]-4-methyl-1H-pyrazol-3-yl}phenyl)methyl]methylamine]",> 5 µM,–,–,–,–,–,–
"CCN(CC)CCCC(C)Nc1ccnc2cc(Cl)ccc12 (stereo not drawn) [CQ, chloroquine]",–,–,–,–,–,–,αCTF (C20) [2]: >>10 μM; AICD (C20) [3]: >>10 μM; CC50 [4]: 30 µM; Aβ production [5]: inhibit Aβ production; levels of other APP metabolites such as APP-CTFs and AICD [6]: maintained and even increased; γ-secretase cleavage of Notch [7]: remains unmodified
"Cc1cn(-c2cccc(CN(C)C)c2)nc1-c1ccc(CN(C)CCCN(C)C)cc1 [Compound 67, {[4-(1-{3-[(dimethylamino)methyl]phenyl}-4-methyl-1H-pyrazol-3-yl)phenyl]methyl}-[3-(dimethylamino)propyl]methylamine]",1.4 µM,–,–,–,–,–,secretion of sAPPα [1]: increasing the secretion of sAPPα; Aβ1-x peptides secretion [8]: reduce Aβ1-x peptides secretion; β-secretase cleavage of APP / β-secretase modulatory activity [9]: repressing the β-secretase cleavage of APP
"Cc1cn(-c2cccc(CN3CCN(C)CC3)c2)nc1-c1cccc(CN(C)CCCN(C)C)c1 [Compound 71, N,N,N′-trimethyl-N′-[[3-[4-methyl-1-[3-[(4-methylpiperazin-1-yl)methyl]phenyl]pyrazol-3-yl]phenyl]methyl]propane-1,3-diamine]",1.1 µM,–,–,–,–,–,secretion of sAPPα [1]: increasing the secretion of sAPPα; Aβ1-x peptides secretion [8]: reduce Aβ1-x peptides secretion; β-secretase cleavage of APP / β-secretase modulatory activity [9]: repressing the β-secretase cleavage of APP
"CN(C)CCCc1ccc(-c2nn(-c3cccc(CN(C)CCCN(C)C)c3)cc2CN(C)C)cc1 [Compound 34, N′-[[3-[4-(dimethylaminomethyl)-3-[4-[3-(dimethylamino)propyl]phenyl]-1H-pyrazol-1-yl]phenyl]methyl]-N,N,N′-trimethyl-propane-1,3-diamine]",> 10 µM,5.7 ± 0.5 µM,8.3 ± 0.2 µM,1.1 µM,1.9 µM,> 100 µM,IC50 [15]: 4.5 ± 0.7 µM
"CN(C)CCCc1ccc(-c2nn(-c3cccc(CN(C)CCCN(C)C)c3)cc2CCCN(C)C)cc1 [Compound 35, N′-[[3-[4-[3-(dimethylamino)propyl]-3-[4-[3-(dimethylamino)propyl]phenyl]-1H-pyrazol-1-yl]phenyl]methyl]-N,N,N′-trimethyl-propane-1,3-diamine]",–,12.4 ± 0.6 µM,13.2 ± 0.2 µM,5.1 µM,5.4 µM,> 100 µM,–
"CN(C)CCCc1ccc(-c2nn(-c3ccc(CN(C)CCCN(C)C)cc3)cc2CCCN(C)C)cc1 [Compound 33, N′-[[4-[4-[3-(dimethylamino)propyl]-3-[4-[3-(dimethylamino)propyl]phenyl]-1H-pyrazol-1-yl]phenyl]methyl]-N,N,N′-trimethyl-propane-1,3-diamine]",> 10 µM,9.2 ± 0.4 µM,9.7 ± 1.2 µM,6.1 µM,8.9 µM,> 100 µM,IC50 [15]: 6.8 ± 0.3 µM
"CN(C)CCCc1ccc(-c2nn(-c3ccc(CN(C)CCCN(C)C)cc3)cc2CN(C)C)cc1 [Compound 32, N′-[[4-[4-(dimethylaminomethyl)-3-[4-[3-(dimethylamino)propyl]phenyl]-1H-pyrazol-1-yl]phenyl]methyl]-N,N,N′-trimethyl-propane-1,3-diamine]",–,4.2 ± 0.1 µM,6.1 ± 0.3 µM,1.1 µM,1.8 µM,> 100 µM,–
